Here are results for 2 molecules from patent US20220380383A1, “NEUROPROTECTIVE PDI MODULATING SMALL MOLECULES AND METHODS OF USE THEREOF” (THE TRUSTEES OF COLUMBIA UNIVERSITY IN THE CITY OF NEW YORK, priority 2018, published 2022).

Entries after “also recorded” stand apart in the source; their conditions may differ.

In data set [1] the target is T1, human catalytic PDI A1 a domain (PDIa) (Homo sapiens, UniProt P07237).
T1 construct: made in house; host or cells: Escherichia coli BL21-Gold (DE3)
T1 sequence (P07237 18-134): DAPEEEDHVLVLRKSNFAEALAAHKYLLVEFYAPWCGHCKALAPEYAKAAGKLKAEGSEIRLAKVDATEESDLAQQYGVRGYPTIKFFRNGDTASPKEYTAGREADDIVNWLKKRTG
The data set can be described thus: Isothermal titration calorimetry (ITC) binding to PDIa. On the technique in general: ITC needs no label: the signal is the heat of the interaction.

The test system of a further data set is five isoforms of CYP450. The data set can be described thus: CYP450 inhibition, five isoforms. The data set is classed as in vitro ADME.
Data set [2] relates to striatal medium spiny neurons in brain slice explants co-transfected with YFP and mHTT. Kind of data set: HD brain slice assay. The data set is classed as cell-based, rat. The protocol:
Resonances with large chemical shifts are labeled in green. Rat coronal brain slice explants co-transfected with YFP and Tau-4R (FIG. 16B) or striatal brain slice explants co-transfected with YFP and mHTT (FIG. 16C) were treated with LC-43 or DMSO carrier-only for 3 days. The respective regions of each brain slice were then scored for numbers of healthy (FIG. 16B) pyramidal or (FIG. 16C) medium spiny neurons remaining. Data are normalized to the negative control condition set to 100% and plotted as means±SEM. In FIG. 16D, The confocal images shown are maximal z-stacks of 0.5 μm steps (˜20 images per stack). (Bottom) Reduction of neuronal redox state by LC-43. Left, Primary neurons were co-transfected with mCherry (to positively identify transfected neurons) and the genetically encoded ratiometric redox reporter roGFP2. Four days later, the culture medium was changed into an identical formulation except without conventional antioxidant additives. […]
Brain slice explants were prepared and transfected as previously described (Reinhart et al., 2011). […] Striatal medium spiny neurons (MSNs) expressing YFP were visualized under fluorescence microscopy and identified based on their location within brain slices and their characteristic morphology.

The target of a further data set is Adenosine A2A (Homo sapiens, UniProt P29274). The data set can be described thus: Off-target panel, Adenosine A2A. The data set is classed as binding. As to conditions: Conc. 3 μM.
Sequence of Adenosine A2A (P29274 whole entry): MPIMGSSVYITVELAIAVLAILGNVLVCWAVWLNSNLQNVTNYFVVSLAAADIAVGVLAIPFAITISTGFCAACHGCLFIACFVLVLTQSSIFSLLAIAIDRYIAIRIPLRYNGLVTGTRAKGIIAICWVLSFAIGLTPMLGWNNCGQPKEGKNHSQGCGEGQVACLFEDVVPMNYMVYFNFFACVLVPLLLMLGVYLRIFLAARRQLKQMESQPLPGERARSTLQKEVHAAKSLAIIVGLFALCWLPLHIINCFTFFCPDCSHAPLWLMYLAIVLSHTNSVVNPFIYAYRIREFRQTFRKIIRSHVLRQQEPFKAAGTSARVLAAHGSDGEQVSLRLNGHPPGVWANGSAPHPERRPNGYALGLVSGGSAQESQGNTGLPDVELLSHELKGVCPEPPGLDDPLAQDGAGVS
In the next data set the target is Adrenergic α1A (Rattus norvegicus, UniProt P43140). Kind of data set: Off-target panel, Adrenergic α1A. It counts as binding. Particulars: Conc. 3 μM.
Sequence of Adrenergic α1A (P43140 whole entry): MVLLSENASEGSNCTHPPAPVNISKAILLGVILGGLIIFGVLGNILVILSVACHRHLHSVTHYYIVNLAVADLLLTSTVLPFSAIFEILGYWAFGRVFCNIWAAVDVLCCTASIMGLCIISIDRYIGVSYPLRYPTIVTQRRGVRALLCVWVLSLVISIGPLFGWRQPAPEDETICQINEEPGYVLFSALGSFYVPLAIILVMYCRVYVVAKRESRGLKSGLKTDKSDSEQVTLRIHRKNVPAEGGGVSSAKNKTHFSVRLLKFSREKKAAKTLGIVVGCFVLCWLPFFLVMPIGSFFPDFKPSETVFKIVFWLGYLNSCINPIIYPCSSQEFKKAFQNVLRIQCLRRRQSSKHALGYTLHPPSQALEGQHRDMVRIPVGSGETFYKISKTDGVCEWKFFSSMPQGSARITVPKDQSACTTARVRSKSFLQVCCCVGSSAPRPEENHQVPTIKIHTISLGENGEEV
A further data set deals with Adrenergic α1B (Rattus norvegicus, UniProt P15823). The data set can be described thus: Off-target panel, Adrenergic α1B. Particulars: Conc. 3 μM. The data set is classed as binding.
Sequence of Adrenergic α1B (P15823 whole entry): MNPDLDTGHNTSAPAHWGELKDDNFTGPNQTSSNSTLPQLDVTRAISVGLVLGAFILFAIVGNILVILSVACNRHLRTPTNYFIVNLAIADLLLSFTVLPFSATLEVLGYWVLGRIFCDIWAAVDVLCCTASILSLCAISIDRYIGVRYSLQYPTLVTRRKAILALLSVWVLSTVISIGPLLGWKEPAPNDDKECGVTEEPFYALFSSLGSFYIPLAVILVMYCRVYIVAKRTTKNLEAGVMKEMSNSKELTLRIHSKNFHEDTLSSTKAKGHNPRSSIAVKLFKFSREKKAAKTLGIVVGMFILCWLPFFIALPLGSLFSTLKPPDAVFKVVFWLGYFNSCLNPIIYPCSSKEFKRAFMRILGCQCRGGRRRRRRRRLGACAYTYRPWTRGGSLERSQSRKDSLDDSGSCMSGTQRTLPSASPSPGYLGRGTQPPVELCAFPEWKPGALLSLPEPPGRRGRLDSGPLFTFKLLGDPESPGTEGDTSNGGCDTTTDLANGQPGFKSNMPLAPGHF
The target of a further data set is Adrenergic β1 (Homo sapiens, UniProt P08588). The data set can be described thus: Off-target panel, Adrenergic β1. It counts as binding. Particulars: Conc. 3 μM.
Sequence of Adrenergic β1 (P08588 whole entry): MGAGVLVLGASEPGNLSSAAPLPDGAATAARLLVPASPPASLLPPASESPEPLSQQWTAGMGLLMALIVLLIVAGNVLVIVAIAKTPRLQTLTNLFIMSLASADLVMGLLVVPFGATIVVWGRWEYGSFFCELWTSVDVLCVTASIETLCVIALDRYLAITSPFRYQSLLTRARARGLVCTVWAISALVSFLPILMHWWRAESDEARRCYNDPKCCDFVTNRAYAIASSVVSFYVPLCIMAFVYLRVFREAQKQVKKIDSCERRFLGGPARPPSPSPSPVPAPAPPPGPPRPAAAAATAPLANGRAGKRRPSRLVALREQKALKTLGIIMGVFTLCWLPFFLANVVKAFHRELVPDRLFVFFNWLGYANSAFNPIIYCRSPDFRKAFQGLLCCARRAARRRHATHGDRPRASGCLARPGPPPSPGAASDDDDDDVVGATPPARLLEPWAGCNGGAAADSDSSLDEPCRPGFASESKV
Another data set concerns the target Cannabinoid CB1 (Homo sapiens, UniProt P21554). The data set can be described thus: Off-target panel, Cannabinoid CB1. It counts as binding. As to conditions: Conc. 3 μM.
Data set [3] addresses Nicotinic Acetylcholine α1, Bungarotoxin (Homo sapiens, UniProt P02708+P07510+Q07001). The data set can be described thus: Off-target panel, Nicotinic Acetylcholine α1. The data set is classed as binding. As to conditions: read-out: % Inh.
The target in data set [4] is Serotonin (5-Hydroxytryptamine) 5-HT2B (Homo sapiens, UniProt P41595). The data set can be described thus: Off-target panel, Serotonin 5-HT2B. The data set is classed as binding. As to conditions: Conc. 3 μM.
Sequence of Serotonin (5-Hydroxytryptamine) 5-HT2B (P41595 whole entry): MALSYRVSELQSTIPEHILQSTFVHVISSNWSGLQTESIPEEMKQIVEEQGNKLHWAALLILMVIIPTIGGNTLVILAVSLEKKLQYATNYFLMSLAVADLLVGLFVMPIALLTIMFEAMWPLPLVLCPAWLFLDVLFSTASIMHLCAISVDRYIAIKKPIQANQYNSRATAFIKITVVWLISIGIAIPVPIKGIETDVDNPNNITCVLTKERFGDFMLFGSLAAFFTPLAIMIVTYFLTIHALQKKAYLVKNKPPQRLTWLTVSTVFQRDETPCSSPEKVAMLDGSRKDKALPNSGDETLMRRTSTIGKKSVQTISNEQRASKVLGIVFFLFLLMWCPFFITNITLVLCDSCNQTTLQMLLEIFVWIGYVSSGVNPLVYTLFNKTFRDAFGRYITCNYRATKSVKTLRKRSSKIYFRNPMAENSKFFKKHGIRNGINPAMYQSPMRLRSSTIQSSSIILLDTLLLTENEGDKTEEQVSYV
Data set [5] concerns the target Transporter, Norepinephrine (NET) (Homo sapiens, UniProt P23975). The data set can be described thus: Off-target panel, Norepinephrine transporter. Particulars: Conc. 3 μM. It counts as binding.
For another data set, the target named is T2, ADORA2A (Homo sapiens, UniProt P29274).
T2 construct: CEREP (CRO that ran the panel)
T2 sequence (P29274 whole entry): as the sequence (P29274 whole entry) above
The data set can be described thus: Safety47 panel GPCR ADORA2A. It counts as cell-based. As to conditions: 3 μM. An excerpt:
(§1) LOC14 was also submitted for testing in CEREP's Safety47 panel. CEREP is a CRO specializing in preclinical research, discovery and development of new pharmaceutical drugs.

A further data set addresses T3, GR (Homo sapiens, UniProt P04150).
T3 construct: CEREP (CRO panel)
Kind of data set: Safety47 panel nuclear hormone receptor GR. The data set is classed as cell-based. Particulars: 3 μM.
Excerpt: as §1

The test system of another data set is GABAA. Kind of data set: Safety47 panel ion channel GABAA. The data set is classed as cell-based, human. Particulars: 3 μM.
Excerpt: as §1

The target in the next data set is T4, HTR3A (Homo sapiens, UniProt P46098).
T4 construct: CEREP (CRO panel)
T4 sequence (P46098 24-478): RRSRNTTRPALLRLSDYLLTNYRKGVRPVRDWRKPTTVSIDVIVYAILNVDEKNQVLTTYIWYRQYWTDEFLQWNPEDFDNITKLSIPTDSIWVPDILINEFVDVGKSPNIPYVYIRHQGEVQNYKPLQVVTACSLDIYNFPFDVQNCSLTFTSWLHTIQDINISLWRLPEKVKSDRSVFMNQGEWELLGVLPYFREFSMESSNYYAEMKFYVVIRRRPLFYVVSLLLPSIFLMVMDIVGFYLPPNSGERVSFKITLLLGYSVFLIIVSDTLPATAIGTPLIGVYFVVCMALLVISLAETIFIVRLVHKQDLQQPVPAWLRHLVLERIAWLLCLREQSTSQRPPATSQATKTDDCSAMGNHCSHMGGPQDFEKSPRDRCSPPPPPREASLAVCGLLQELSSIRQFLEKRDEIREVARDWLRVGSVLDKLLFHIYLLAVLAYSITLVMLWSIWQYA
The data set can be described thus: Safety47 panel ion channel HTR3A. Particulars: 3 μM. It counts as cell-based.
Excerpt: as §1

A further data set deals with T5, AChE (Homo sapiens, UniProt P22303).
T5 construct: CEREP (CRO panel)
Kind of data set: Safety47 panel non-kinase enzyme AChE. It counts as biochemical. Particulars: Inhibitor mode; 3 μM.
Excerpt: as §1

The next data set concerns the target T6, ROCK1 (Homo sapiens, UniProt Q13464).
T6 construct: CEREP (CRO, Safety47 panel)
The data set can be described thus: Safety47 panel kinase ROCK1. It counts as biochemical. As to conditions: Inhibitor mode; 3 μM.
Excerpt: as §1

In a further data set the target is T7, CYP1A2 (Homo sapiens, UniProt P05177).
T7 construct: Cyprotex (CRO)
Kind of data set: CYP450 inhibition, CYP1A2. It counts as in vitro ADME. As to conditions: high concentration of 30 μM.

A further data set deals with Potassium Channel hERG (Homo sapiens, UniProt Q12809).

T3 sequence (P04150 whole entry): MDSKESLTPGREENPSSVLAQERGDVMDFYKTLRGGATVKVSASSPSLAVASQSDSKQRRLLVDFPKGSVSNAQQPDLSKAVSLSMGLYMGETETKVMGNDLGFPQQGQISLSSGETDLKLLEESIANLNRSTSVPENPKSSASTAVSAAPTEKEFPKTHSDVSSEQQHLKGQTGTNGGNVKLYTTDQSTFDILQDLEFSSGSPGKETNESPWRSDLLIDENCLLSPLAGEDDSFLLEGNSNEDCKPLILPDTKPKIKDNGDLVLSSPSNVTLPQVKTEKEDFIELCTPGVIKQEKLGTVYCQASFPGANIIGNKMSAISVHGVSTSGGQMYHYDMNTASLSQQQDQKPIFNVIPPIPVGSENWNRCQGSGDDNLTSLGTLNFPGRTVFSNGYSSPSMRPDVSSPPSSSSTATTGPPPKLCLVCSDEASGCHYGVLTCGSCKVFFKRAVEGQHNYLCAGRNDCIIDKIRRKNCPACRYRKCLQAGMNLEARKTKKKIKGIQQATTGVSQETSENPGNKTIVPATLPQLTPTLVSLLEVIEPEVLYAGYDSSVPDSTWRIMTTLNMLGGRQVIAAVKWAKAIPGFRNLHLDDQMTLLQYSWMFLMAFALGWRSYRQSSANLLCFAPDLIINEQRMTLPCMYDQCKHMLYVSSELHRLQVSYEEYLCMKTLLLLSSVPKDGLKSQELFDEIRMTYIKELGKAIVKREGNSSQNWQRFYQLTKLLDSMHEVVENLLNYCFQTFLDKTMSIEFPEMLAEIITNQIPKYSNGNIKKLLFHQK
Sequence of Transporter, Norepinephrine (NET) (P23975 whole entry): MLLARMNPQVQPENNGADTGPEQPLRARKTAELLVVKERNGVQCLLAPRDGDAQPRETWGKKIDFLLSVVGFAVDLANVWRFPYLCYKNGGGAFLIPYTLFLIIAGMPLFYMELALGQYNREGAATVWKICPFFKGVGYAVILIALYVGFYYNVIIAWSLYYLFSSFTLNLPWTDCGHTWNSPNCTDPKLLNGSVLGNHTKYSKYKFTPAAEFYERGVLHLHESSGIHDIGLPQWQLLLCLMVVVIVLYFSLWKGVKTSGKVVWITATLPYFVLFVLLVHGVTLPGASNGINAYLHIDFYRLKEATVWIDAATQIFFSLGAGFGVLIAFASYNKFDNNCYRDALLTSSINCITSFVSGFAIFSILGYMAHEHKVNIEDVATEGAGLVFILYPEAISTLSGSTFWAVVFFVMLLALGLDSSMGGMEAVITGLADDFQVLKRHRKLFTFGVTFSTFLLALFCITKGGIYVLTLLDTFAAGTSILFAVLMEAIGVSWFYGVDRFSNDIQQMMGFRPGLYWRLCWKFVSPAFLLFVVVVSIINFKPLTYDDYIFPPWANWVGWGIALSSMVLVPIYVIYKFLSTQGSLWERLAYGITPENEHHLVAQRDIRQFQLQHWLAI
Sequence of Cannabinoid CB1 (P21554 whole entry): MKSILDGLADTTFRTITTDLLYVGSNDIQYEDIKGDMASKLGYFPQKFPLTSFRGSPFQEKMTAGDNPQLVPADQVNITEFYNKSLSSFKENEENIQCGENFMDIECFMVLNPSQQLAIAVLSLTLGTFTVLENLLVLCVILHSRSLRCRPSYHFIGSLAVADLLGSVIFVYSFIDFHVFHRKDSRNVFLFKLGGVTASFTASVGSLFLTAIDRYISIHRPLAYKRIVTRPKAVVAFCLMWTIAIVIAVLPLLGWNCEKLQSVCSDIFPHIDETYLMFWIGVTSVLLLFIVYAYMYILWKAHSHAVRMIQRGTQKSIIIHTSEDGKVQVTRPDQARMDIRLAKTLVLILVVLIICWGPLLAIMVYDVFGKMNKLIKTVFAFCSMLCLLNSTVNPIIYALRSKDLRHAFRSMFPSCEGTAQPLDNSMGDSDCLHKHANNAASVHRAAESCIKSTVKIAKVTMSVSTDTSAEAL

Regarding `O=C(C1CC1)N1CCN(Cn2sc3c(F)cccc3c2=O)CC1` [LC-43], in [1], the “binding to PDI by ITC” value is listed as “showed no binding to the protein by ITC”. The “ITC KD” value in data set [1] (N/A = not active) is reported as “KD = N/A irreversible or not active”. Further, the “inhibition of the five isoforms of CYP450” value with five isoforms of CYP450 is given as “does not show any inhibition”. In [2] (3 days treatment), the “rescue of medium spiny neurons in HD brain slice” value is reported as “dose-dependent rescue; also recorded: robust neuroprotection”. Also, in data set [2] (HD brain slice assay), the “concentration that provided peak rescue” value was 10 µM.
Regarding `O=C(C1CC1)N1CCN(Cn2sc3ccccc3c2=O)CC1` [LOC14], the inhibition at 3 µM against Adenosine A2A is -4%; at Adrenergic α1A, -14%; against Adrenergic α1B, 2%; against Adrenergic β1, 7%; at Cannabinoid CB1 it was -22%; in data set [3], 11%. Moreover, the inhibition at 3 µM in data set [4] amounted to 36%; in [5], 24%. Further, the “Average % Response” value at ADORA2A (Agonist mode) worked out at 2.6%; at ADORA2A (Antagonist mode), 2.4%. Also, the Average was found to be 0.0 on GR (Agonist mode); 0.1 at GR (Antagonist mode); 5.1 in the data set on GABAA (Blocker mode); 0.0 in the data set on GABAA (Opener mode); 0.0 at HTR3A (Blocker mode); 2.5 on HTR3A (Opener mode). The Average is on record as 2.8 at AChE and 13.5 at ROCK1. On CYP1A2, the “inhibition of CYP1A2” value was “inhibits”. Also, at Potassium Channel hERG, the “binding to the hERG receptor” value is “does not bind to the hERG receptor”.
